Broadly, the AUC(0-inf) is the area under the concentration-time curve extrapolated to infinity. In general, Cmax refers to the peak of the concentration-time curve.

The source of these data is US20230263786A1, “MODULATION OF DRUG-DRUG INTERACTIONS OF VADADUSTAT” (Akebia Therapeutics, Inc., priority 2020, published 2023).

The target of data set [1] is T1, CYP2C8 (Homo sapiens, UniProt P10632).
T1 sequence (P10632 1-490): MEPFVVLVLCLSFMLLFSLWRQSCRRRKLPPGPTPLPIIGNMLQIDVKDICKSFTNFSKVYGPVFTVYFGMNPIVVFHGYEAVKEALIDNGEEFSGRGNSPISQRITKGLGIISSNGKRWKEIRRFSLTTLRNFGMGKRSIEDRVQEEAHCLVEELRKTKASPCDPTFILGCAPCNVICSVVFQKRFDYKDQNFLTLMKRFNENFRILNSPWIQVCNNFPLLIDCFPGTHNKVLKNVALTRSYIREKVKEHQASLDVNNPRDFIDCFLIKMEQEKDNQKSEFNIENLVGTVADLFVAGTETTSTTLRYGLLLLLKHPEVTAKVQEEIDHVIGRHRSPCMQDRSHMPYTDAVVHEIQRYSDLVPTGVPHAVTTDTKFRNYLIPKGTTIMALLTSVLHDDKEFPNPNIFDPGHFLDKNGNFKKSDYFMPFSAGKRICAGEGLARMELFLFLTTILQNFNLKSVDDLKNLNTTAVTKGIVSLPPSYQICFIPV
Put plainly: CYP2C8 inhibition in vitro. In kind it is in vitro ADME.

Data set [2] can be described thus: Phase 1 oral iron interaction study, Cohort 2 (before meal): sucroferric oxyhydroxide. In kind it is in vivo, human. The note with it: for AUC(0-inf) / AUC(0-t) / Cmax / half-life: male, human, plasma, oral; for AUC(0-inf): read-out: AUC(0-inf), LS geometric mean; for AUC(0-t): read-out: AUC(0-last), LS geometric mean; for Cmax: read-out: Cmax, LS geometric mean; for half-life: read-out: t1/2, LS geometric mean (converted). The source says:
(§1) The study included 3 periods as follow: • Screening: performed within 4 weeks before the day of administration of the study drug. • Evaluation period: Cohort 1 was confined to the study site for 10-night, 11-day. Cohort 2 and Cohort 3 were confined to the study site for 7 nights and 8 days. • Post-administration tests: performed 3 days after administration of the last dose of the study drug.
In Cohort 2, 20 subjects were further randomized into 2 groups (10 subjects per group) and the evaluation period was divided into 2 periods during the study:
(§2) Administration of vadadustat tablets alone: after fasting for at least 10 hours and immediately before eating breakfast (5 minutes before starting the meal), 1 vadadustat tablet (150 mg) will be taken orally with 200 mL of water, then breakfast would be eaten over a period of 10 minutes (extra water may be drunk if more is needed when taking the tablet, and the extra volume would be recorded). After breakfast, subjects would fast until the end of the collection of blood samples at 4 hours after administration of the study drug. Subjects would eat lunch over a period of 20 minutes after blood samples were collected at 4 hours after administration of the study drug. After lunch, subjects would fast until dinner, when they would eat dinner over a period of 20 minutes at 10 hours after administration of the study drug. Subjects would fast from dinner until breakfast the next morning.
Administration of vadadustat tablets and sucroferric oxyhydroxide: after fasting for at least 10 hours and immediately before eating breakfast (5 minutes before starting the meal), subjects would chew and swallow 2 tablets of sucroferric oxyhydroxide (containing 1000 mg of iron), then 1 vadadustat tablet (150 mg) would be taken orally with 200 mL of water, then breakfast would be eaten over a period of 10 minutes (extra water may be drunk if more is needed when taking the tablets, and the extra volume would be recorded). After breakfast, subjects would fast until the end of the collection of blood samples at 4 hours after administration of the study drug. After blood samples were collected at 4 hours after administration of the study drug and immediately before lunch, subjects would chew and swallow 2 tablets of sucroferric oxyhydroxide (containing 1000 mg of iron), then eat lunch over a period of 20 minutes. After lunch, subjects will fast until dinner, and immediately before dinner at 10 hours after administration of the study drug, chew and swallow 2 tablets of sucroferric oxyhydroxide (containing 1000 mg of iron), then eat dinner over a period of 20 minutes. Subjects would fast from dinner until breakfast the next morning.

Data set [3] can be described thus: Phase 1 oral iron interaction study, Cohort 3 (fasting): dried ferrous sulfate slow release. Particulars: for AUC(0-inf) / AUC(0-t) / Cmax / half-life: male, human, plasma, oral; for AUC(0-inf): read-out: AUC(0-inf), LS geometric mean; for AUC(0-t): read-out: AUC(0-last), LS geometric mean; for Cmax: read-out: Cmax, LS geometric mean; for half-life: read-out: t1/2, LS geometric mean (converted). In kind it is in vivo, human.
From the text: as §1
In Cohort 3, 20 subjects were further randomized into 2 groups (10 subjects per group) and the evaluation period was divided into 2 periods during the study:
as §2, with “hours,” for “hours and immediately before eating breakfast (5 minutes before starting the meal),”, “would” for “will”, “water” for “water, then breakfast would be eaten over a period of 10 minutes”, “Subjects” for “After breakfast, subjects”
as §2, with “and dried ferrous sulfate:” for “alone:”, “hours,” for “hours and immediately before eating breakfast (5 minutes before starting the meal),”, “and 2 tablets of dried ferrous sulfate (containing 210 mg of iron) would” for “will”, “water” for “water, then breakfast would be eaten over a period of 10 minutes”, “tablets,” for “tablet,”, “Subjects” for “After breakfast, subjects”

Data set [4] has as its system hemoglobin concentration and red blood cell count. Put plainly: Hemoglobin concentration and red blood cell count after repeated dosing. The note with it: normal rats, repeated oral administration for 14 days. In kind it is in vivo, rat.
[5] abbreviates: 150 mg with sucroferric oxyhydroxide (1000 mg iron), before meal.
Setting [6] is: 150 mg with dried ferrous sulfate slow release (210 mg iron), fasting.

For `O=C(O)CNC(=O)c1ncc(-c2cccc(Cl)c2)cc1O` [Compound 1, {[5-(3-chlorophenyl)-3-hydroxypyridine-2-carbonyl]amino}acetic acid], in data set [1], the “inhibitory effect on CYP2C8” value is reported as “inhibitory effect”. Further, in data set [2] (setting [5]), the “Kel, LS geometric mean” value worked out at 0.16 h⁻¹; the AUC(0-inf) stood at 45700 ng·h/mL; the AUC(0-t) came out at 44500 ng·h/mL; the Cmax was determined as 8810 ng/mL. Also, the half-life in data set [2] (setting [5]) was 4.33 h. In data set [2] (Compound 1 150 mg alone, before meal), the “Kel, LS geometric mean” value amounted to 0.13 h⁻¹. Further, in data set [2] (150 mg), the AUC(0-inf) is 99500 ng·h/mL, the AUC(0-t) came to 95700 ng·h/mL, the Cmax is 15200 ng/mL and the half-life was 5.17 h. Besides, in data set [3] (setting [6]), the “Kel, LS geometric mean” value was 0.14 h⁻¹; the AUC(0-inf) amounted to 13200 ng·h/mL; the AUC(0-t) is 12000 ng·h/mL; the maximum concentration (Cmax) is 2140 ng/mL. For the same compound, the half-life in data set [3] (setting [6]) is 4.8 h. Besides, the “Kel, LS geometric mean” value in data set [3] (Compound 1 150 mg alone, fasting) is 0.13 h⁻¹. Further, in data set [3] (150 mg), the area under the curve AUC(0-inf) came out at 128000 ng·h/mL, the AUC(0-t) turned out to be 124000 ng·h/mL, the peak concentration (Cmax) is 26500 ng/mL and the half-life is 5.17 h. For the same compound, in data set [4], the hemoglobin concentration entry was “increasing” and the “red blood cell count” value is “increasing”.
